# In US8952024B2, “Herbicidal pyrimidone derivatives” (E I du Pont de Nemours and Company, priority 2009, dated 2015):
# What was measured:
# Format in all cases: in vivo
# [1] = test system: bermudagrass (Cynodon dactylon); test: Test B pre-/postemergence plant response
# Method in brief: (§1)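 Each species received compound formulated in non-phytotoxic solvent with surfactant, either at planting into a loam and sand blend or as a foliar spray once plants reached 2 to 18 cm in peat-based medium. Plants stayed in the greenhouse 13 to 15 days before visual evaluation against controls, scored 0 (no effect) to 100 (complete control).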
# [2] = test system: cocklebur (Xanthium strumarium); test: Test B pre-/postemergence plant response
# Method in brief: as §1
# corn (Zea mays) = test: Test B pre-/postemergence plant response
# Method in brief: as §1
# [3] = test system: giant foxtail (Setaria faberii); test: Test B pre-/postemergence plant response
# Method in brief: as §1
# [4] = test system: green foxtail (Setaria viridis); test: Test B pre-/postemergence plant response
# Method in brief: as §1
# [5] = test system: johnsongrass (Sorghum halepense); test: Test B pre-/postemergence plant response
# Method in brief: as §1
# kochia (Kochia scoparia) = test: Test B pre-/postemergence plant response; details: Postemergence; for Plant response rating, Kochia: scale 0 (no effect) to 100 (complete control)
# Method in brief: as §1
# [6] = test system: lambsquarters (Chenopodium album); test: Test B pre-/postemergence plant response
# Method in brief: as §1
# [7] = test system: pigweed (Amaranthus retroflexus); test: Test B pre-/postemergence plant response
# Method in brief: as §1
# [8] = test system: ragweed (common ragweed, Ambrosia elatior); test: Test B pre-/postemergence plant response
# Method in brief: as §1
# soybean (Glycine max) = test: Test B pre-/postemergence plant response
# Method in brief: as §1
# wild oat (Avena fatua) = test: Test B pre-/postemergence plant response
# Method in brief: as §1
# [9] = test system: barnyardgrass (Echinochloa crus-galli); test: Test B flooded paddy test
# Method in brief: (§2)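 Ratings are visual, 0–100 (100 = complete control), taken versus untreated controls 13 to 15 days after treatment in the greenhouse. Compound went straight into paddy water held 3 cm above soil, applied to 2-leaf-stage plants of four species.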
# [10] = test system: ducksalad (Heteranthera limosa); test: Test B flooded paddy test
# Method in brief: as §2
# rice (Oryza sativa) = test: Test B flooded paddy test
# Method in brief: as §2
# [11] = test system: umbrella sedge (Cyperus difformis); test: Test B flooded paddy test
# Method in brief: as §2
# [12] = 250 g ai/ha, Preemergence, 0 to 100 scale
# [13] = Postemergence, 31 g ai/ha, scale 0 to 100 (0 no effect, 100 complete control)
# [14] = Postemergence, 62 g ai/ha, scale 0 (no effect) to 100 (complete control), 13 to 15 days
# [15] = Postemergence, 125 g ai/ha, visual rating after 13 to 15 days, scale 0 (no effect) to 100 (complete control)
# [16] = Postemergence, 250 g ai/ha, scale 0 to 100
# [17] = Preemergence, 31 g ai/ha, scale 0 to 100 (0 no effect, 100 complete control)
# [18] = Preemergence, 62 g ai/ha, scale 0 to 100, 0 no effect, 100 complete control
# [19] = Preemergence, 125 g ai/ha, 0 to 100 scale
# [20] = 250 g ai/ha, flooded paddy test, visual rating on 0 to 100 scale (0 no effect, 100 complete control) after 13 to 15 days
# [21] = Flood (flooded paddy test), 62 g ai/ha, scale of 0 to 100 where 0 is no effect and 100 is complete control, 13 to 15 days
structure (smiles),measurement,setting,value
Cc1cc(F)ccc1-n1c(-c2ccccc2)ncc(C(=O)C2=C(O)CCCC2=O)c1=O [Compound 48],"Plant response rating, Bermudagrass",[1]; [12],100
same,"Plant response rating, Bermudagrass",[1]; [13],85
same,"Plant response rating, Bermudagrass",[1]; [14],95
same,"Plant response rating, Bermudagrass",[1]; [15],98
same,Bermudagrass plant response rating,[1]; [16],100
same,"Plant response rating, Bermudagrass",[1]; [17],100
same,"Plant response rating, Bermudagrass",[1]; [18],100
same,Bermudagrass plant response rating,[1]; [19],100
same,"Plant response rating, Cocklebur",[2]; [12],85
same,"Plant response rating, Cocklebur",[2]; [13],95
same,"Plant response rating, Cocklebur",[2]; [14],95
same,"Plant response rating, Cocklebur",[2]; [15],98
same,Cocklebur plant response rating,[2]; [16],98
same,"Plant response rating, Cocklebur",[2]; [18],0
same,Cocklebur plant response rating,[2]; [19],0
same,"Plant response rating, Corn",corn (Zea mays); [12],0
same,"Plant response rating, Corn",corn (Zea mays); [13],65
same,"Plant response rating, Corn",corn (Zea mays); [14],70
same,"Plant response rating, Corn",corn (Zea mays); [15],85
same,Corn plant response rating,corn (Zea mays); [16],85
same,"Plant response rating, Corn",corn (Zea mays); [17],0
same,"Plant response rating, Corn",corn (Zea mays); [18],0
same,Corn plant response rating,corn (Zea mays); [19],0
same,"Plant response rating, Foxtail, Giant",[3]; [12],98
same,"Plant response rating, Foxtail, Giant",[3]; [13],85
same,"Plant response rating, Foxtail, Giant",[3]; [14],85
same,"Plant response rating, Foxtail, Giant",[3]; [15],95
same,"Foxtail, Giant plant response rating",[3]; [16],98
same,"Plant response rating, Foxtail, Giant",[3]; [17],20
same,"Plant response rating, Foxtail, Giant",[3]; [18],75
same,"Foxtail, Giant plant response rating",[3]; [19],85
same,"Plant response rating, Foxtail, Green",[4]; [12],98
same,"Plant response rating, Foxtail, Green",[4]; [13],85
same,"Plant response rating, Foxtail, Green",[4]; [14],95
same,"Plant response rating, Foxtail, Green",[4]; [15],95
same,"Foxtail, Green plant response rating",[4]; [16],95
same,"Plant response rating, Foxtail, Green",[4]; [17],60
same,"Plant response rating, Foxtail, Green",[4]; [18],60
same,"Foxtail, Green plant response rating",[4]; [19],98
same,"Plant response rating, Johnsongrass",[5]; [12],98
same,"Plant response rating, Johnsongrass",[5]; [14],80
same,"Plant response rating, Johnsongrass",[5]; [15],80
same,Johnsongrass plant response rating,[5]; [16],95
same,"Plant response rating, Johnsongrass",[5]; [17],20
same,"Plant response rating, Johnsongrass",[5]; [18],45
same,Johnsongrass plant response rating,[5]; [19],90
same,"Plant response rating, Kochia","kochia (Kochia scoparia); 62 g ai/ha, 13 to 15 days",98
same,"Plant response rating, Kochia","kochia (Kochia scoparia); 125 g ai/ha, visual rating after 13 to 15 days",100
same,Kochia plant response rating,"kochia (Kochia scoparia); 250 g ai/ha, scale 0 to 100",100
same,"Plant response rating, Lambsquarters",[6]; [12],100
same,"Plant response rating, Lambsquarters",[6]; [14],95
same,"Plant response rating, Lambsquarters",[6]; [15],100
same,Lambsquarters plant response rating,[6]; [16],100
same,"Plant response rating, Lambsquarters",[6]; [17],100
same,"Plant response rating, Lambsquarters",[6]; [18],100
same,Lambsquarters plant response rating,[6]; [19],100
same,"Plant response rating, Pigweed",[7]; [12],100
same,"Plant response rating, Pigweed",[7]; [14],85
same,"Plant response rating, Pigweed",[7]; [15],100
same,"Plant response rating, Pigweed",[7]; [17],100
same,Pigweed plant response rating,[7]; [19],100
same,"Plant response rating, Ragweed",[8]; [12],95
same,"Plant response rating, Ragweed",[8]; [14],85
same,"Plant response rating, Ragweed",[8]; [15],90
same,"Plant response rating, Ragweed",[8]; [17],65
same,Ragweed plant response rating,[8]; [19],90
same,"Plant response rating, Soybean",soybean (Glycine max); [12],20
same,"Plant response rating, Soybean",soybean (Glycine max); [14],95
same,"Plant response rating, Soybean",soybean (Glycine max); [15],98
same,"Plant response rating, Soybean",soybean (Glycine max); [17],0
same,Soybean plant response rating,soybean (Glycine max); [19],0
same,"Plant response rating, Oat, Wild",wild oat (Avena fatua); [12],15
same,"Plant response rating, Oat, Wild",wild oat (Avena fatua); [14],50
same,"Plant response rating, Oat, Wild",wild oat (Avena fatua); [15],85
same,"Plant response rating, Oat, Wild",wild oat (Avena fatua); [17],0
same,"Oat, Wild plant response rating",wild oat (Avena fatua); [19],0
same,"Plant response rating, Flood, Barnyardgrass",[9]; [20],35
same,"Plant response rating, Barnyardgrass",[9]; [21],0
same,"Plant response rating, Flood, Ducksalad",[10]; [20],85
same,"Plant response rating, Ducksalad",[10]; [21],0
same,"Plant response rating, Flood, Rice",rice (Oryza sativa); [20],65
same,"Plant response rating, Rice",rice (Oryza sativa); [21],0
same,"Plant response rating, Flood, Sedge, Umbrella",[11]; [20],75
same,"Plant response rating, Sedge, Umbrella",[11]; [21],40
